Legend:
[1] = molecular target: T1, recombinant IAV polymerase complex (PA/PB1/PB2) (Influenza A virus, UniProt F6KI70); assay type: biochemical, H3N2 IAV strain (A/chicken/Nanchang/3-120/01); conditions: for Primer extension products opposite C on template: template t14-1, 100 µM nucleotide plus 25 µM CTP and UTP; for Kapp, single NMP incorporation opposite cytidine (N:C): template t14-1, position +10; for Discrimination (Kapp,NTP/Kapp,GTP), opposite cytidine: template t14-1, relative to natural GTP; for Primer extension products opposite U on template: template t14-2, 100 µM nucleotide; for Discrimination (Kapp,NTP/Kapp,ATP), opposite uridine: template t14-2, relative to natural ATP; for Primer extension products with multiple incorporation sites (UCC at +10 to +12): template t14-3, 100 µM nucleotide
[2] = molecular target: T1, recombinant IAV polymerase complex (PA/PB1/PB2); assay type: biochemical, H3N2 IAV strain (A/chicken/Nanchang/3-120/01); conditions: T-705 RTP at 100 µM; for Effect of increasing natural GTP to 300 µM on inhibition of polymerase activity: GTP 300 µM vs low, 3′dGTP data not shown
[3] = tested on: influenza virus RNP complex (RdRp activity); assay type: biochemical, Influenza virus (A/WSN/33 (H1N1))

Row | Compound | Primer extension products opposite C on template [1] | Effect of increasing natural GTP to 300 µM on inhibition of polymerase activity [2] | Inhibition of radiolabeled viral RNA synthesis by RNP complex [3] | Kapp, single NMP incorporation opposite cytidine (N:C) [1] | Discrimination (Kapp,NTP/Kapp,GTP), opposite cytidine [1] | Primer extension products opposite U on template [1] | Kapp, single NMP incorporation opposite uridine (N:U) ([1]; template t14-2, position +10) | Discrimination (Kapp,NTP/Kapp,ATP), opposite uridine [1] | Primer extension products with multiple incorporation sites (UCC at +10 to +12) [1] | further results
1 | Nc1ncnc2c1ncn2[C@@H]1O[C@H](COP(=O)(O)OP(=O)(O)OP(=O)(O)O)C[C@H]1O [3′dATP] |  |  |  |  |  |  |  |  |  | Incorporation by IAVpol in single nucleotide incorporation assay ([1]; data not shown): not significantly incorporated by IAVpol
2 | Nc1nc2c(ncn2[C@@H]2O[C@H](COP(=O)(O)OP(=O)(O)OP(=O)(O)O)C[C@H]2O)c(=O)[nH]1 [3′dGTP, 3′-deoxy GTP] | produced only a 10-mer chain termination product | almost completely prevented the inhibition of polymerase activity | progressive inhibition of radio-labeled RNA synthesis |  |  |  |  |  |  | 
3 | Nc1ncnc2c1ncn2[C@@H]1O[C@H](COP(=O)(O)OP(=O)(O)OP(=O)(O)O)[C@@H](O)[C@H]1O [ATP] | mis-incorporation was slightly increased |  |  | 2,560±720 µM | 330,000 fold | converted to 14-mer full length product | 0.022 ± 0.003 µM | 1 fold | most of the 9-mer was converted to 10-mer | Error rate of RNA synthesis by IAV polymerase, A:C mismatch ([1]; ATP opposite cytidine, calculated from Kapp): 3.1×10^−6; Kapp for ATP opposite uridine as printed in text ([1]; template t14-2, position +10): 0.022 ± 0.003 µM⁻¹; Kapp for ATP incorporation, t14-3 template ([1]; template t14-3, 9-mer to +10 position): 0.038 µM
4 | Nc1nc2c(ncn2[C@@H]2O[C@H](COP(=O)(O)OP(=O)(O)OP(=O)(O)O)[C@@H](O)[C@H]2O)c(=O)[nH]1 [GTP] | converted to the 14-mer full length extension product |  |  | 0.0078 ± 0.003 µM | 1 fold | robust 14-mer RNA product | 9.2 ± 0.54 µM | 420 fold |  | Error rate of RNA synthesis by IAV polymerase, G:U mismatch ([1]; GTP opposite uridine, calculated from Kapp): 2.4×10^−3
5 | NC(=O)c1nc(F)cn([C@@H]2O[C@H](COP(=O)(O)OP(=O)(O)OP(=O)(O)O)[C@@H](O)[C@H]2O)c1=O [T-705 RTP, T-705 ribofuranosyl 5′-triphosphate] | conversion of the 9-mer to 14-mer, with an additional 10-mer product | almost completely prevented the inhibition of polymerase activity | inhibited the RdRp activity of influenza virus vRNPs |  |  | conversion of the 9-mer to 10- and 14-mer products |  |  | complete inhibition of further nucleotide incorporation | Effect of increasing natural ATP to 300 µM on inhibition ([2]; ATP 300 µM vs 3 µM): same loss of inhibition effect; Effect of CTP and UTP at varying concentrations on inhibition potency ([2]; CTP or UTP 3 or 300 µM): did not change the inhibition potency; Potency relative to 3′dGTP against RNP complex [3]: significantly more potent than 3′dGTP
